Assay results: ChEMBL document CHEMBL1145140, “Inhibitors of inosine monophosphate dehydrogenase: SARs about the N-[3-Methoxy-4-(5-oxazolyl)phenyl moiety” (Bioorg Med Chem Lett, 2003)

What was measured:
[1] = target: Inosine-5'-monophosphate dehydrogenase 2 (Homo sapiens, UniProt P12268); experiment: Inhibition of inosine-5'-monophosphate dehydrogenase 2.; assay type: single protein
CCRF-CEM = experiment: Inhibition of CEM cell proliferation.; assay type: functional, cell-based; settings: Homo sapiens

Row | Compound | IC50 [1] | IC50 (CCRF-CEM)
1 | COc1cc(Nc2ncc(-c3ccccc3)o2)c(F)cc1-c1cnco1 | > 5000 nM | –
2 | COc1cc(Nc2ncc(-c3ccccc3N(C)C(=O)CO)o2)ccc1-c1cocn1 | 41 nM | 3700 nM
3 | COc1cc(Nc2ncc(-c3ccccc3)o2)ccc1-c1ncco1 | 190 nM | –
4 | CN(C(=O)CN1CCOCC1)c1ccccc1-c1cnc(Nc2ccc(-c3cnco3)c(Cl)c2)o1 | 47 nM | 4300 nM
5 | CNc1nc(Nc2ccc(-c3cnco3)cc2)nc(-c2ccccc2)n1 | > 5000 nM | –
6 | CNc1nc(Nc2ccc(-c3ocnc3C)cc2)nc(-c2ccccc2)n1 | > 5000 nM | –
7 | Cc1cccc(NC(=O)Nc2ccc(-c3cnco3)c(Cl)c2)c1 | 43 nM | > 10000 nM
8 | Cc1cccc(NC(=O)Nc2ccc(-c3ocnc3C)cc2)c1 | 500 nM | –
9 | CCc1cc(Nc2ncc(-c3ccccc3N(C)C(=O)CN3CCOCC3)o2)ccc1-c1cnco1 | 310 nM | > 10000 nM
10 | COc1cc(NC(=O)Nc2cccc(C)c2)ccc1-c1cnco1 | – | 2300 nM
11 | COc1cc(Nc2ncc(-c3ccccc3)o2)ccc1-c1cocn1 | > 57 nM | > 10000 nM
12 | COc1c(-c2cnco2)ccc(Nc2ncc(-c3ccccc3)o2)c1Cl | > 5000 nM | –
13 | CNc1nc(Nc2ccc(-c3cocn3)c(OC)c2)nc(-c2ccccc2)n1 | 1600 nM | –
14 | CNc1nc(Nc2ccc(-c3cnco3)c(OC)c2)nc(-c2ccccc2)n1 | – | 3700 nM
15 | CC(C)(C)NC(=O)C(=O)Nc1ccc(-c2cnco2)cc1 | > 5000 nM | –
16 | Cc1nc(C)c(-c2ccc(Nc3ncc(-c4ccccc4)o3)cc2)o1 | > 2000 nM | –
17 | Cc1ncoc1-c1ccc(NC(=O)C(=O)NC(C)(C)C)cc1 | > 5000 nM | –
18 | CCOc1cc(Nc2ncc(-c3ccccc3)o2)ccc1-c1cnco1 | > 10000 nM | –
19 | Oc1cc(Nc2ncc(-c3ccccc3)o2)ccc1-c1cnco1 | > 1600 nM | –
20 | COc1cc(Nc2ncc(-c3ccccc3N(C)C(=O)CN3CCOCC3)o2)ccc1-c1cocn1 | 91 nM | 9900 nM
21 | CC(C)(C)NC(=O)C(=O)Nc1ccc(-c2cnco2)c(Cl)c1 | – | > 10000 nM
22 | COc1cc(Nc2ncc(-c3ccccc3)o2)ccc1-n1cncn1 | 410 nM | 8300 nM
23 | Cc1cc(Nc2ncc(-c3ccccc3N(C)C(=O)CO)o2)ccc1-c1cnco1 | 100 nM | 4500 nM

Row | Compound | IC50 [1] | IC50 (CCRF-CEM)
24 | CCc1cc(Nc2ncc(-c3ccccc3N(C)C(=O)CO)o2)ccc1-c1cnco1 | 100 nM | 4500 nM
25 | COc1cc(NC(=NC#N)Nc2ccccc2)ccc1-c1cnco1 | 240 nM | –
26 | COc1cc(NC(=O)C(=O)NC(C)(C)C)ccc1-c1cnco1 | – | 2300 nM
27 | Clc1cc(Nc2ncc(-c3ccccc3)o2)ccc1-c1cnco1 | 88 nM | > 10000 nM
28 | CNc1nc(Nc2ccc(-c3cnco3)c(Cl)c2)nc(-c2ccccc2)n1 | > 340 nM | –
29 | c1ccc(-c2cnc(Nc3ccc(-c4cnco4)cc3)o2)cc1 | > 5000 nM | –
30 | c1ccc(-c2cnc(Nc3ccc(-c4cocn4)cc3)o2)cc1 | > 5000 nM | –
31 | Cc1ncoc1-c1ccc(Nc2ncc(-c3ccccc3)o2)cc1 | > 5000 nM | –
32 | CN(C(=O)CO)c1ccccc1-c1cnc(Nc2ccc(-c3cnco3)c(Br)c2)o1 | 21 nM | 2400 nM
33 | COc1cc(Nc2ncc(-c3ccccc3)o2)ccc1-c1cnc(C)o1 | > 2000 nM | –
34 | Cc1cccc(NC(=O)Nc2ccc(-c3cnco3)cc2)c1 | 640 nM | > 10000 nM
35 | Cc1ncoc1-c1ccc(NC(=O)/C=C/c2ccco2)cc1 | > 2000 nM | –
36 | Cc1cc(Nc2ncc(-c3ccccc3)o2)ccc1-c1cocn1 | > 5000 nM | –
37 | CN(C(=O)CN1CCOCC1)c1ccccc1-c1cnc(Nc2ccc(-c3cnco3)c(Br)c2)o1 | 28 nM | 3200 nM
38 | COc1cc(Nc2ncc(-c3ccccc3N(C)C(=O)CO)o2)ccc1-c1cnco1 | 21 nM | 1400 nM
39 | Clc1cc(Nc2ncc(-c3ccccc3)o2)ccc1-c1cocn1 | > 5000 nM | –
40 | COc1cc(Nc2ncc(-c3ccccc3)o2)c(Cl)cc1-c1cnco1 | > 1600 nM | –
41 | CN(C(=O)CO)c1ccccc1-c1cnc(Nc2ccc(-c3cnco3)c(Cl)c2)o1 | 41 nM | 3600 nM
42 | COc1cc(Nc2ncc(-c3ccccc3)o2)ccc1-c1cnco1 | – | > 10000 nM
43 | COc1cc2nc(-c3ccccc3)cc(O)c2cc1-c1cocn1 | 210 nM | 3500 nM
44 | COc1cc(Nc2ncc(-c3ccccc3)o2)ccc1-c1ocnc1C | > 5000 nM | –
45 | CC(C)(C)NC(=O)C(=O)Nc1ccc(-c2cnco2)c(Br)c1 | – | 5500 nM
46 | Cc1cc(Nc2ncc(-c3ccccc3N(C)C(=O)CN3CCOCC3)o2)ccc1-c1cnco1 | 45 nM | 3000 nM
